Values of other authors as cited in US7402578B2, “Methods for inhibiting cognitive deterioration in adults with down's syndrome” (Corcept Therapeutics, Inc., priority 2001, dated 2008).

Tests used:
[1] = in one study (Kawai)
[2] = test system: cognitive function in DS children; conditions: Lobaugh et al. 2001

SMILES	fraction of the daily dose excreted in the urine [1]	enhancement of cognitive function [2]
CC#C[C@]1(O)CC[C@H]2[C@@H]3CCC4=CC(=O)CCC4=C3[C@@H](c3ccc(N(C)C)cc3)C[C@@]21C [Mifepristone, 17-beta-hydroxy-11-beta-(4-dimethylaminophenyl)-17-alpha-(1-propynyl)-estra-4,9-dien-3-one]	less than 0.5%	
NC(=O)CN1CCCC1=O [Piracetam]		failed to enhance cognitive function
